Laboratory results as given in patent US20040198731A1, “Aminoalkyl-substituted aromatic bicyclic compounds, methods for their preparation and their use as pharmaceuticals” (Aventis Pharma Deutschland GmbH, priority 2001, published 2004).

What follows are molecules tested against T1, human MCH receptor (Homo sapiens, UniProt Q99705) (assay: Functional measurement of cellular calcium flow (FLIPR) in recombinant HEK293 cells expressing human MCH receptor). Details: cellular assay, calcium flow after addition of agonist (MCH), HEK293 (PEAK Stable Cells) expressing human MCH receptor.
T1 construct: expressed in transfected cells
T1 sequence (Q99705 whole entry): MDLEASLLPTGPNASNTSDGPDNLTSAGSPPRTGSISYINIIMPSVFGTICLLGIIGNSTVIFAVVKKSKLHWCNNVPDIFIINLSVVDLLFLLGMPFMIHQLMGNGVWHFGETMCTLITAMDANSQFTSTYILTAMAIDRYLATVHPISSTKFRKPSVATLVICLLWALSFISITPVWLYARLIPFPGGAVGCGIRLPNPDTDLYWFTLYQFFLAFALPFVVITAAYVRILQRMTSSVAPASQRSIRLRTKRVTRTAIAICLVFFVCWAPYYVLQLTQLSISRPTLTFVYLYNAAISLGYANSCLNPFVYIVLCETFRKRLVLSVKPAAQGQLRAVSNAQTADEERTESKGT
Type: cell-based
Text: In two simultaneously published articles in Nature (Nature, 400:261-264, 1999; Nature, 400:265-269, 1999, see enclosure), two groups separately described a highly specific receptor for melanin-concentrating hormone (MCH). MCH takes over important functions in the control of food intake. Compounds acting on the MCH receptor therefore have anorectic action and are suitable for the treatment of obesity. The test for anorectic action of the inventive compounds of formula I was therefore carried out as follows.
Functional measurements for determination of IC50
Cloning of the cDNA for human MCH receptor, preparation of a recombinant HEK293 cell line expressing human MCH receptor and functional measurements with said recombinant cell line were carried out according to the description by Audinot et al. (J. Biol. Chem., 276, 13554-13562, 2001). In contrast to the reference, however, plasmid pEAK8 from EDGE Biosystems (USA) was used for constructing the expression vector. A transformed HEK cell line named “PEAK Stable Cells” (likewise from EDGE Biosystems) served as host for transfection. The functional measurements of cellular calcium flow, after addition of agonists (MCH), in the presence of the ligand of the invention was carried out with the aid of the FLIPR instrument from Molecular Devices (USA), using the manufacturer's protocols.
With Cc1ccc(Oc2ccc(NC(=O)Nc3ccc4c(ccn4CCN(C)C)c3)cc2)cc1 [Example 84, 1-[1-(2-Di-methylaminoethyl)-1H-in-dol-5-yl]-3-(4-p-tolyl-oxyphenyl)urea] the IC50 was 0.4 µM. CN(C)CCn1ccc2cc(NC(=O)Nc3ccc(N4CC=CCC4)cc3)ccc21 [Example 24, 1-[4-(3,6-Dihydro-2H-py-ridin-1-yl)phenyl]-3-[1-(2-di-methylaminoethyl)-1H-in-dol-5-yl]urea] showed an IC50 of 0.86 µM. CN(C)CCn1ccc2cc(NC(=O)Nc3ccc(Oc4cccc(C(F)(F)F)c4)cc3)ccc21 [Example 86, 1-[1-(2-Di-methylaminoethyl)-1H-in-dol-5-yl]-3-[4-(3-tri-fluoromethyl-phenoxy)phenyl]urea] showed an IC50 of 2.78 µM. CN(C)CCn1ccc2cc(NC(=O)Nc3ccc(OCc4ccccc4)cc3)ccc21 [Example 80, 1-(4-Benzyloxyphenyl)-3-[1-(2-di-methylaminoethyl)-1H-in-dol-5-yl]urea] gave an IC50 of 3.36 µM. For CN(C)CCn1ccc2cc(NC(=O)Nc3ccc(Oc4cccnc4)cc3)ccc21 [Example 73, 1-[1-(2-Dimethyl-aminoethyl)-1H-in-dol-5-yl]-3-[4-(py-ridin-3-yloxy)phe-nyl]urea], the IC50 was 0.14 µM. Molecule Cc1nc2cc(NC(=O)Nc3ccc(OC(C)C)cc3)ccc2n1CCN1CCCCC1 [Example 7, 1-(4-Isopropoxyphenyl)-3-[2-methyl-1-(2-piperidin-1-ylethyl)-1H-benzoimidazol-5-yl]urea] has an IC50 of 0.45 µM. With Cc1nc2cc(NC(=O)Nc3ccc(Oc4ccccc4)cc3)ccc2n1CCN(C)C [Example 10, 1-[2-Methyl-1-(2-dimethylaminoethyl)-1H-benzoimidazol-5-yl]-3-(4-phenoxyphenyl)urea] the IC50 was 0.11 µM. Molecule CN(C)CCn1ccc2cc(NC(=O)Nc3ccc(N4CCCC4)cc3)ccc21 [Example 22, 1-[1-(2-Di-methylaminoethyl)-1H-in-dol-5-yl]-3-(4-pyr-rolidin-1-ylphe-nyl)urea] has an IC50 of 4.42 µM. In the case of CN(C)CCn1ccc2cc(NC(=O)Nc3ccc(Oc4ccccc4Cl)cc3)ccc21 [Example 105, 1-[4-(2-Chloro-phenoxy)-phenyl]-3-[1-(2-di-methylaminoethyl)-1H-in-dol-5-yl]urea], the IC50 is reported as 1 µM. For CCCCc1ccc(NC(=O)Nc2ccc3c(ccn3CCN(C)C)c2)cc1 [Example 71, 1-(4-Butylphenyl)-3-[1-(2-di-methylaminoethyl)-1H-in-dol-5-yl]urea], the IC50 was 2.65 µM. In the case of CN(C)CCn1ccc2cc(NC(=O)Nc3ccc(Oc4ccccc4)nc3)ccc21 [Example 106, 1-[1-(2-Di-methylaminoethyl)-1H-in-dol-5-yl]-3-(6-phenoxy-pyridin-3-yl)urea], the IC50 is reported as 0.2 µM. In the case of CC1CCCN(c2ccc(NC(=O)Nc3ccc4c(ccn4CCN(C)C)c3)cc2)C1 (stereo not drawn) [Example 29, 1-[1-(2-Di-methylaminoethyl)-1H-in-dol-5-yl]-3-[4-(3-methyl-piperidin-1-yl)phe-nyl]urea], the IC50 is reported as 2.91 µM. Cc1c(C)n(CCN(C)C)c2ccc(NC(=O)Nc3ccc(Oc4ccccc4)cc3)cc12 [Example 18, 1-[1-(2-Dimethylaminoethyl)-2,3-dimethyl-1H-indol-5-yl]-3-(4-phenoxyphenyl)urea] was tested, and the IC50 was 1.04 µM. O=C(Nc1ccc(Oc2ccccc2)cc1)Nc1ccc2c(c1)ncn2CCN1CCCC1 [Example 11, 1-(4-Phenoxyphenyl)-3-[1-(2-pyrrolidin-1-ylethyl)-1H-benzoimidazol-5-yl]urea] gave an IC50 of 0.14 µM. Cc1nc2cc(NC(=O)Nc3ccc(Oc4ccccc4)cc3)ccc2n1CCN1CCCCC1 [Example 15, 1-[2-Methyl-1-(2-piperidin-1-ylethyl)-1H-benzoimidazol-5-yl]-3-(4-phenoxyphenyl) urea] gave an IC50 of 0.18 µM. Work on CCc1nc2cc(NC(=O)Nc3ccc(Oc4ccccc4)cc3)ccc2n1CCN1CCCC1 [Example 14, 1-[2-Ethyl-1-(2-pyrrolidin-1-ylethyl)-1H-benzoimidazol-5-yl]-3-(4-phenoxyphenyl)urea] yielded an IC50 of 0.3 µM. In the case of Cc1cc2cc(NC(=O)Nc3ccc(Oc4ccccc4)cc3)ccc2n1CCN(C)C [Example 19, 1-[1-(2-Dimethylaminoethyl)-2-methyl-1H-indol-5-yl]-3-(4-phenoxyphenyl)urea], the IC50 is reported as 0.7 µM. In the case of CC(C)COc1ccc(NC(=O)Nc2ccc3c(ccn3CCN(C)C)c2)c(F)c1 [Example 63, 1-[1-(2-Dimethyl-aminoethyl)-1H-in-dol-5-yl]-3-(2-fluoro-4-iso-butoxyphenyl)urea], the IC50 is reported as 0.57 µM. With CN(C)CCn1ccc2cc(NC(=O)Nc3ccc(Oc4cccc(Cl)c4)cc3)ccc21 [Example 77, 1-[4-(3-Chloro-phenoxy)-phe-nyl]-3-[1-(2-dimethyl-aminoethyl)-1H-in-dol-5-yl]urea] the IC50 was 0.7 µM. CN(C)CCn1c(-c2ccccc2)nc2cc(NC(=O)Nc3ccc(Oc4ccccc4)cc3)ccc21 [Example 13, 1-[1-(2-Dimethylaminoethyl)-2-phenyl-1H-benzoimidazol-5-yl]-3-(4-phenoxyphenyl)urea] gave an IC50 of 2.5 µM. Cn1c(CN2CCCC2)cc2cc(NC(=O)Nc3ccc(Oc4ccccc4)cc3)ccc21 [Example 3, 1-(1-Methyl-2-pyrrolidin-1-ylmethyl-1H-indol-5-yl)-3-(4-phenoxyphenyl)urea] was tested, and the IC50 was 0.29 µM. For Cc1nc2cc(NC(=O)Nc3ccc(OC(C)C)cc3)ccc2n1CCN1CCOCC1 [Example 8, 1-(4-Isopropoxyphenyl)-3-[2-methyl-1-(2-morpholin-4-yl-ethyl)-1H-benzoimidazol-5-yl]urea], the IC50 was 1.9 µM. Work on CN(C)CCn1ccc2cc(NC(=O)Nc3ccc(-c4ccc(F)cc4)cc3)ccc21 [Example 81, 1-[1-(2-Di-methylaminoethyl)-1H-in-dol-5-yl]-3-(4′-fluoro-biphenyl-4-yl)urea] yielded an IC50 of 2.69 µM. Molecule Cc1nc2cc(NC(=O)Nc3ccc(OC(C)C)cc3)ccc2n1CCN(C)C [Example 5, 1-[1-(2-Dimethylaminoethyl)-2-methyl-1H-benzoimidazol-5-yl]-3-(4-isopropoxyphenyl)urea] has an IC50 of 0.5 µM. CN(C)CCn1ccc2cc(NC(=O)Nc3ccc(-c4ccccc4)cc3)ccc21 [Example 78, 1-Biphenyl-4-yl-3-[1-(2-di-methylaminoethyl)-1H-in-dol-5-yl]urea] showed an IC50 of 2.75 µM. For CCN1CCCC1Cn1c(C)nc2cc(NC(=O)Nc3ccc(Oc4ccccc4)cc3)ccc21 (stereo not drawn) [Example 16, 1-[1-(1-Ethylpyrrolidin-2-ylmethyl)-2-methyl-1H-benzoimidazol-5-yl]-3-(4-phenoxy-phenyl)urea], the IC50 was 0.33 µM. For CC(C)COc1ccc(NC(=O)Nc2ccc3c(ccn3CCN(C)C)c2)cc1F [Example 65, 1-[1-(2-Dimethyl-aminoethyl)-1H-in-dol-5-yl]-3-(3-fluoro-4-iso-butoxyphenyl)urea], the IC50 was 0.5 µM. For CCN1CCCC1Cn1c(C)nc2cc(NC(=O)Nc3ccc(OC(C)C)cc3)ccc21 (stereo not drawn) [Example 6, 1-[1-(1-Ethylpyrrolidin-2-ylmethyl)-2-methyl-1H-benzoimidazol-5-yl]-3-(4-isopropoxyphenyl)urea], the IC50 was 2.34 µM. CN(C)CCn1ccc2cc(NC(=O)Nc3ccc(N4CCSCC4)cc3)ccc21 [Example 26, 1-[1-(2-Di-methylaminoethyl)-1H-in-dol-5-yl]-3-(4-thio-morpholin-4-yl-phe-nyl)urea] gave an IC50 of 0.92 µM. Work on Cc1cccc(Oc2ccc(NC(=O)Nc3ccc4c(ccn4CCN(C)C)c3)cc2)c1 [Example 107, 1-[1-(2-Di-methylaminoethyl)-1H-in-dol-5-yl]-3-(4-m-tolyl-oxyphenyl)urea] yielded an IC50 of 1 µM. Molecule COc1ccccc1Oc1ccc(NC(=O)Nc2ccc3c(ccn3CCN(C)C)c2)cc1 [Example 76] has an IC50 of 4.25 µM. Work on COc1cccc(Oc2ccc(NC(=O)Nc3ccc4c(ccn4CCN(C)C)c3)cc2)c1 [Example 109, 1-[1-(2-Dimethyl-aminoethyl)-1H-indol-5-yl]-3-[4-(3-meth-oxyphenoxy)-phenyl]urea] yielded an IC50 of 1.29 µM. Molecule CC(C)COc1ccc(NC(=O)Nc2ccc3c(ccn3CCN(C)C)c2)cc1 [Example 72, 1-[1-(2-Dimethyl-aminoethyl)-1H-in-dol-5-yl]-3-(4-iso-butoxyphenyl)urea] has an IC50 of 0.32 µM. CN(C)Cc1nc2cc(NC(=O)Nc3ccc(Oc4ccccc4)cc3)ccc2[nH]1 [Example 17, 1-(2-Dimethylaminomethyl-1H-benzoimidazol-5-yl)-3-(4-phenoxyphenyl)urea] showed an IC50 of 2.14 µM. Cc1nc2cc(NC(=O)Nc3ccc(Oc4ccccc4)cc3)ccc2n1CCN1CCCC1 [Example 9] was tested, and the IC50 was 0.1 µM. CCCCOc1ccc(NC(=O)Nc2ccc3c(ccn3CCN(C)C)c2)cc1 [Example 2, 1-(4-Butoxyphenyl)-3-[1-(2-dimethylaminoethyl)-1H-indol-5-yl]urea] was tested, and the IC50 was 0.15 µM. Work on CC1CCN(c2ccc(NC(=O)Nc3ccc4c(ccn4CCN(C)C)c3)cc2)CC1 [Example 33, 1-[1-(2-Di-methylaminoethyl)-1H-in-dol-5-yl]-3-[4-(4-methyl-piperidin-1-yl)phe-nyl]urea] yielded an IC50 of 1.24 µM. Work on Cc1ccccc1Oc1ccc(NC(=O)Nc2ccc3c(ccn3CCN(C)C)c2)cc1 [Example 108, 1-[1-(2-Di-methylaminoethyl)-1H-in-dol-5-yl]-3-(4-o-tolyl-oxyphenyl)urea] yielded an IC50 of 0.43 µM. In the case of COc1cc(Nc2ccccc2)ccc1NC(=O)Nc1ccc2c(ccn2CCN(C)C)c1 [Example 79, 1-[1-(2-Dimethyl-aminoethyl)-1H-indol-5-yl]-3-(2-meth-oxy-4-phenyl-aminophenyl)-urea], the IC50 is reported as 2.13 µM.
